These results are taken from article PMC7037052, “Predicting the Blood-Brain Barrier Permeability of New Drug-Like Compounds via HPLC with Various Stationary Phases” (Molecules, 2020).

Format in all cases: physicochemical
The nature of series [1]: RP-HPLC retention on IAM.PC.DD2 (immobilized artificial membrane) column, buffer pH 7.4-acetonitrile. The conditions noted are these: for log kw, IAM: extrapolated to buffer pH 7.4 as mobile phase, 25 °C; for s IAM: slope of Soczewiński-Wachtmeister equation, acetonitrile φ 0.2–0.5. As to the method: (§1) Retention parameters reported as the log k values were calculated by the expression:(1) logk=log(tR−t0)/t0 where tR and t0 are the retention times of the solute and a non-retained compound (citric acid), respectively. They were used to calculate the log kw values, i.e., logarithms of retention parameter in the buffer as the mobile phase. For this purpose the Soczewiński-Wachtmeister’s equation was used:log k = log kw − sφ(2) where φ is the volume fraction of organic modifier in the mobile phase; k and kw are retention parameters corresponding to mixed effluent and buffer as the mobile phase, respectively. The slope s is characteristic of a given solute and chromatographic system. Strong linear relationships between log k and φ values were found for all the compounds in the range of effluent composition examined (R^2 > 0.9). The log kw values determined for the ODS (log kw, ODS), IAM (log kw, IAM) and Cholester (log kw, Cholester) columns were intercorrelated and the following linear relationships with a very good statistical quality were obtained:log kw, ODS = 0.691(± 0.094) + 0.982(± 0.044) log kw, IAM(3) SD = 0.257; R^2 = 0.8880; N = 65 log kw, ODS = 0.911(± 0.062) + 0.765(± 0.025) log kw, Cholester(4) SD = 0.192; R^2 = 0.9371; N = 65 log kw, IAM = 0.356(± 0.073) + 0.721(± 0.029) log kw, Cholester(5) SD = 0.224; R^2 = 0.9068; N = 65
(§2) Shimadzu Vp (Shimadzu, Izabelin, Poland) liquid chromatographic system equipped with LC 10AT pump, SPD 10A UV-Vis detector, SCL 10A system controller, CTO-10 AS chromatographic oven and Rheodyne injector valve with a 20 µL loop was applied in HPLC measurements. Three stationary phases were employed: • Purosphere RP-18e (ODS), 125 × 4 mm i.d., 5 µm (Merck); • IAM.PC.DD2 100 × 4.6 mm i.d., 10 µm (Regis Chemicals Company, Morton Grove, IL, USA); • Cosmosil Cholester, 75 × 2 mm i.d., 2.5 µm (Genore, Warsaw, Poland).
(§3) As mobile phases buffer-acetonitrile mixtures were used. The buffer was prepared from 0.01 mol L^−1 solutions of Na2HPO4 and citric acid and the pH 7.4 value was fixed before mixing with organic modifier. With the ODS column acetonitrile concentration in the effluent, expressed as a volume fraction (φ, v/v), was changed in the range 0.3–0.6, with the constant step of 0.1. The flow rate was 1 mL min^−1. With the IAM column acetonitrile concentration was changed in the range 0.2–0.5, also with the constant step of 0.1 and the flow rate was 1.3 mL min^−1. With the Cosmosil Cholester column acetonitrile concentration was changed in the range 0.4–0.6, with the constant step of 0.05 and the flow rate was 0.4 mL min^−1. Samples of test compounds were dissolved in acetonitrile—c.a. 0.005 mg mL^−1. […] They were detected under UV light at 210 and 254 nm. All measurements were carried out at 25 °C. The dead time values were measured from non-retained compound (citric acid) peaks. All reported log kw values are the average of at least three independent measurements. The extrapolated retention coefficients (logs kw) achieved by HPLC on ODS, IAM and Cholester stationary phases were used for modelling the log BB permeation of 65 drug-like compounds employed as a whole test set (Table 1).

Series [2] is described as follows: RP-HPLC retention on Cosmosil Cholester column, buffer pH 7.4-acetonitrile. To be noted: for log kw, Cholester: extrapolated to buffer pH 7.4 as mobile phase, 25 °C; for s Cholester: slope of Soczewiński-Wachtmeister equation, acetonitrile φ 0.4–0.6. As to the method: as §1, §2, §3
The nature of series [3]: RP-HPLC retention on Purosphere RP-18e (ODS) column, buffer pH 7.4-acetonitrile. The conditions noted are these: for log kw, ODS: extrapolated to buffer pH 7.4 as mobile phase, 25 °C; for s ODS: slope of Soczewiński-Wachtmeister equation, acetonitrile φ 0.3–0.6. As for the experimental part: as §1, §2, §3

Each structure is given as a SMILES string.

With `CCc1nnc2n(c1=O)CCN2c1ccccc1Cl` [Compound 3], in series [1], the “log kw, IAM” value is listed as 0.80 and the “s IAM” value was 2.51. Also, in series [2], the “log kw, Cholester” value is 0.46 and the “s Cholester” value came to 1.70. Moreover, in series [3], the “log kw, ODS” value was 1.22 and the “s ODS” value amounted to 3.02.
Consider `COC(=O)Cc1nnc2n(c1=O)CCN2c1ccccc1` [Compound 7], for which, in series [1], the “log kw, IAM” value is 0.81 and the “s IAM” value came to 2.38. Moreover, in series [2], the “log kw, Cholester” value is recorded as 0.58 and the “s Cholester” value was determined as 1.92. For the same compound, in series [3], the “log kw, ODS” value is 1.28 and the “s ODS” value was 3.09.
In the case of `COC(=O)Cc1nnc2n(c1=O)CCN2c1ccc(OC)cc1` [Compound 9], in series [1], the “log kw, IAM” value was 0.81 and the “s IAM” value is listed as 2.45. In series [2], the “log kw, Cholester” value is listed as 0.57 and the “s Cholester” value was 1.82. In series [3], the “log kw, ODS” value is 1.30 and the “s ODS” value is 3.02.
For the compound `CCOc1ccc(N2CCn3c2nnc(CC(=O)OC)c3=O)cc1` [Compound 10], in series [1], the “log kw, IAM” value was 1.42 and the “s IAM” value is 3.39. In series [2], the “log kw, Cholester” value is reported as 1.36 and the “s Cholester” value is recorded as 2.81. In addition, in series [3], the “log kw, ODS” value is recorded as 1.95 and the “s ODS” value is on record as 3.91.
Turning to `COC(=O)Cc1nnc2n(c1=O)CCN2c1ccc(Cl)cc1` [Compound 11], in series [1], the “log kw, IAM” value is 1.82 and the “s IAM” value is on record as 4.39. In addition, in series [2], the “log kw, Cholester” value is on record as 1.82 and the “s Cholester” value came to 3.55. Besides, in series [3], the “log kw, ODS” value is 2.36 and the “s ODS” value turned out to be 4.44.
Turning to `CCOC(=O)Cc1nnc2n(c1=O)CCN2c1ccccc1` [Compound 12], in series [1], the “log kw, IAM” value was 1.21 and the “s IAM” value stood at 3.11. In series [2], the “log kw, Cholester” value was 1.11 and the “s Cholester” value is 2.55. Also, in series [3], the “log kw, ODS” value is recorded as 1.75 and the “s ODS” value was 3.61.
For `CCOC(=O)Cc1nnc2n(c1=O)CCN2c1ccc(C)cc1` [Compound 13], in series [1], the “log kw, IAM” value was 1.70 and the “s IAM” value was 3.85. Besides, in series [2], the “log kw, Cholester” value was 1.92 and the “s Cholester” value amounted to 3.58. In series [3], the “log kw, ODS” value is reported as 2.37 and the “s ODS” value is listed as 4.36.
Consider `CCOC(=O)Cc1nnc2n(c1=O)CCN2c1ccc(OC)cc1` [Compound 14], for which, in series [1], the “log kw, IAM” value is on record as 0.91 and the “s IAM” value is reported as 2.58. Also, in series [2], the “log kw, Cholester” value was 0.65 and the “s Cholester” value was found to be 1.92. Moreover, in series [3], the “log kw, ODS” value is reported as 1.37 and the “s ODS” value is 3.15.
For `CCOC(=O)Cc1nnc2n(c1=O)CCN2c1ccc(Cl)cc1` [Compound 16], in series [1], the “log kw, IAM” value is reported as 2.11 and the “s IAM” value stood at 4.51. In series [2], the “log kw, Cholester” value is 2.37 and the “s Cholester” value is reported as 4.19. Moreover, in series [3], the “log kw, ODS” value is recorded as 2.80 and the “s ODS” value is recorded as 4.88.
As for `CCOC(=O)Cc1nnc2n(c1=O)CCN2c1ccc(Cl)c(Cl)c1` [Compound 17], in series [1], the “log kw, IAM” value is recorded as 2.42 and the “s IAM” value was 5.01. In series [2], the “log kw, Cholester” value is listed as 2.77 and the “s Cholester” value was 4.61. For the same compound, in series [3], the “log kw, ODS” value is given as 3.16 and the “s ODS” value turned out to be 5.33.
As to `O=c1c(-c2ccco2)nnc2n1CCN2c1ccccc1` [Compound 18], in series [1], the “log kw, IAM” value was 1.29 and the “s IAM” value was 3.23. In series [2], the “log kw, Cholester” value is 1.43 and the “s Cholester” value is given as 3.12. Also, in series [3], the “log kw, ODS” value is recorded as 2.12 and the “s ODS” value is given as 4.06.
Turning to `Cc1ccc(N2CCn3c2nnc(-c2ccco2)c3=O)cc1` [Compound 20], in series [1], the “log kw, IAM” value was 1.69 and the “s IAM” value is listed as 3.90. Also, in series [2], the “log kw, Cholester” value is given as 2.03 and the “s Cholester” value was determined as 3.68. In series [3], the “log kw, ODS” value is 2.43 and the “s ODS” value is on record as 4.39.
Regarding `COc1ccc(N2CCn3c2nnc(-c2ccco2)c3=O)cc1` [Compound 23], in series [1], the “log kw, IAM” value is given as 1.19 and the “s IAM” value was determined as 3.13. Moreover, in series [2], the “log kw, Cholester” value is 1.53 and the “s Cholester” value came to 3.05. For the same compound, in series [3], the “log kw, ODS” value was 1.91 and the “s ODS” value stood at 3.82.
Turning to `O=c1c(-c2ccco2)nnc2n1CCN2c1cccc(Cl)c1` [Compound 25], in series [1], the “log kw, IAM” value is on record as 2.08 and the “s IAM” value came to 4.55. Moreover, in series [2], the “log kw, Cholester” value was 2.36 and the “s Cholester” value came out at 4.05. Moreover, in series [3], the “log kw, ODS” value is 2.75 and the “s ODS” value was 4.85.
With `O=c1c(-c2ccco2)nnc2n1CCN2c1ccc(Cl)cc1` [Compound 26], in series [1], the “log kw, IAM” value was 2.02 and the “s IAM” value was found to be 4.44. Further, in series [2], the “log kw, Cholester” value is recorded as 2.29 and the “s Cholester” value was 4.15. In series [3], the “log kw, ODS” value was 2.65 and the “s ODS” value worked out at 4.59.
Take `O=c1c(-c2ccco2)nnc2n1CCN2c1ccc(Cl)c(Cl)c1` [Compound 27]: in series [1], the “log kw, IAM” value is listed as 3.23 and the “s IAM” value is 6.30. In series [2], the “log kw, Cholester” value is on record as 2.92 and the “s Cholester” value came to 4.85. Further, in series [3], the “log kw, ODS” value was 3.46 and the “s ODS” value stood at 5.68.
For the compound `O=c1c(-c2ccccc2)nnc2n1CCN2c1ccccc1` [Compound 29], in series [1], the “log kw, IAM” value is 1.91 and the “s IAM” value came to 4.22. In series [2], the “log kw, Cholester” value is reported as 2.34 and the “s Cholester” value turned out to be 4.02. Also, in series [3], the “log kw, ODS” value is 2.49 and the “s ODS” value came out at 4.51.
Turning to `Cc1ccccc1N1CCn2c1nnc(-c1ccccc1)c2=O` [Compound 30], in series [1], the “log kw, IAM” value is given as 1.53 and the “s IAM” value amounted to 3.52. Further, in series [2], the “log kw, Cholester” value was 1.88 and the “s Cholester” value was found to be 3.50. In series [3], the “log kw, ODS” value is 2.12 and the “s ODS” value is given as 4.01.
Turning to `Cc1cccc(N2CCn3c2nnc(-c2ccccc2)c3=O)c1` [Compound 31], in series [1], the “log kw, IAM” value was 2.26 and the “s IAM” value worked out at 4.68. Besides, in series [2], the “log kw, Cholester” value is reported as 2.77 and the “s Cholester” value came to 4.42. Also, in series [3], the “log kw, ODS” value is on record as 2.93 and the “s ODS” value is reported as 5.02.
Take `Cc1ccc(N2CCn3c2nnc(-c2ccccc2)c3=O)cc1` [Compound 32]: in series [1], the “log kw, IAM” value is 2.22 and the “s IAM” value is recorded as 4.81. For the same compound, in series [2], the “log kw, Cholester” value is 2.86 and the “s Cholester” value is 4.65. In series [3], the “log kw, ODS” value was 2.93 and the “s ODS” value is recorded as 5.06.
`COc1ccccc1N1CCn2c1nnc(-c1ccccc1)c2=O` [Compound 33]: in series [1], the “log kw, IAM” value is listed as 1.47 and the “s IAM” value is on record as 3.62. In series [2], the “log kw, Cholester” value is reported as 1.69 and the “s Cholester” value is recorded as 2.94. In series [3], the “log kw, ODS” value is 1.98 and the “s ODS” value is 3.99.
